Test results taken from patent US9005644B2, “Pesticidal compositions” (BASF Corporation, priority 2008, dated 2015).
Several values for one entry are separate records, joined by “and”; a condition that tells them apart may be missing. Equal values may be shown once.

Legend:
cockroaches = test: LD50 and LD10 determination for cockroaches (dose-response mortality, probit analysis); format: in vivo; details: for LD10 mg/insect / LD50 mg/insect: cockroaches, probit analysis
Description: In this example, various mineral oils and alcohols were tested to determine, for cockroaches, the LD50 and LD10 for each.
PD23 and PD28 mineral oils were obtained from Sonneborn LLC, Mahwah, N.J. The physical properties of these oils are shown in Table 11. Each mineral oil was tested to determine the LD50 and LD10 (Table 12).
The tested alcohols were obtained from Sigma-Aldrich Corp., St. Louis, Mo. Each alcohol was tested to determine the LD50 and LD10 (Table 12).

German cockroaches = test: Topical toxicity evaluation on adult German cockroaches, mortality (dead/moribund) at 24 hours; format: in vivo, Blattella germanica (German cockroach); details: for # dead at 24 h / Proportion dead at 24 h: amounts in label
Description: Toxicity evaluations were performed on 7-14 day old adult male and female German cockroaches (SCJ Strain, S.C. Johnson & Son, Racine, Wis.). Approximately 12 cockroaches were transferred to individual 100×20 mm polystyrene Petri dishes and anesthetized with a 15-25 second exposure to carbon dioxide. The inside edge of each Petri dish was lightly coated with mineral oil plus petroleum jelly in a 1:3 (wt/wt) ratio to minimize escape. Anesthetized cockroaches were positioned with their ventral side up, and a 1 μl drop of the diluted test composition was applied to the area between the meso- and metathoracic legs using a Rainin L-10, 10 μl capacity pipette (Rainin Instrument, LLC, Oakland, Calif.). Five replications of 12 male cockroaches were done for each test composition. Separate tests were done using female cockroaches. Results were evaluated at 24 hours following treatment. Cockroaches were scored as either alive (dorsal side up, active movement when abdomen prodded with dissecting probe) or moribund/dead (dorsal side up and no movement when abdomen prodded or ventral side up and insect unable to right itself).
The compositions comprising alcohol and/or mineral oil are described in Table 13.

[1] = Table 18, Exxsol D95 mineral oil
[2] = Table 3, male cockroaches, remainder acetone, per replicate

Compound | LD10 mg/insect (cockroaches) [mg/insect] | LD50 mg/insect (cockroaches) [mg/insect] | # dead at 24 h (German cockroaches; Table 13, per replicate (# treated 10-16), listed as 1-butanol (0.8 mg)) | Proportion dead at 24 h (German cockroaches; Table 13, per replicate, listed as 1-butanol (0.8 mg)) | # dead at 24 h (German cockroaches; Table 14, composite data) | Proportion dead at 24 h (German cockroaches; Table 14, composite data) | LD10 (cockroaches; as detailed in Example 9) [mg/insect] | # dead at 24 h (German cockroaches; Table 13, per replicate (# treated 10-16), listed as 1-propanol (0.45 mg)) | Proportion dead at 24 h (German cockroaches; Table 13, per replicate, listed as 1-propanol (0.45 mg)) | # dead at 24 h (German cockroaches; [1]) | Proportion dead at 24 h (German cockroaches; [1]) | synergy with EXXSOL D95 (German cockroaches; alone and in combination with Exxsol D95 mineral oil) | # dead at 24 h (German cockroaches; Table 13, per replicate (# treated 10-16), listed as 2-butanol (0.8 mg)) | Proportion dead at 24 h (German cockroaches; Table 13, per replicate, listed as 2-butanol (0.8 mg)) | Arcsine square root % dead (German cockroaches; [2]) | Proportion dead (German cockroaches; [2]) | Square root % dead (German cockroaches; [2]) | # dead (German cockroaches; Table 3, male cockroaches, remainder acetone, per replicate (# tested 12-14))
CCCCO [Composition 1-butanol, 1-butanol] | 0.877 | 1.018 | 0 (2×) and 1 | 0.000 (2×) and 0.100 | 1 | 0.029 |  |  |  |  |  |  |  |  |  |  |  | 
CCCO [Composition 1-propanol, 1-propanol] | 0.472 | 0.557 |  |  | 1 | 0.028 | 0.472 | 1 and 0 (2×) | 0.083 and 0.000 (2×) | 1 | 0.028 | significant synergy |  |  |  |  |  | 
CCC(C)O (centres unmarked) [Composition 2-butanol, 2-butanol] | 0.881 | 1.188 |  |  | 1 | 0.026 |  |  |  |  |  |  | 0 (2×) and 1 | 0.000 (2×) and 0.083 |  |  |  | 
Hexylene glycol [Hexylene glycol (20%)] |  |  |  |  |  |  |  |  |  |  |  |  |  |  | 0 | 0 | 0 | 1 and 0 (2×) and 3
